“Also recorded” adds a separate entry of the source.
Legend:
human sEH = target: T1, human sEH (Homo sapiens, UniProt P34913); assay: sEH IC50 assay, fluorescent-based with CMNPC substrate; format: biochemical; conditions: compared to compound 11g
T1 sequence (P34913 1-555): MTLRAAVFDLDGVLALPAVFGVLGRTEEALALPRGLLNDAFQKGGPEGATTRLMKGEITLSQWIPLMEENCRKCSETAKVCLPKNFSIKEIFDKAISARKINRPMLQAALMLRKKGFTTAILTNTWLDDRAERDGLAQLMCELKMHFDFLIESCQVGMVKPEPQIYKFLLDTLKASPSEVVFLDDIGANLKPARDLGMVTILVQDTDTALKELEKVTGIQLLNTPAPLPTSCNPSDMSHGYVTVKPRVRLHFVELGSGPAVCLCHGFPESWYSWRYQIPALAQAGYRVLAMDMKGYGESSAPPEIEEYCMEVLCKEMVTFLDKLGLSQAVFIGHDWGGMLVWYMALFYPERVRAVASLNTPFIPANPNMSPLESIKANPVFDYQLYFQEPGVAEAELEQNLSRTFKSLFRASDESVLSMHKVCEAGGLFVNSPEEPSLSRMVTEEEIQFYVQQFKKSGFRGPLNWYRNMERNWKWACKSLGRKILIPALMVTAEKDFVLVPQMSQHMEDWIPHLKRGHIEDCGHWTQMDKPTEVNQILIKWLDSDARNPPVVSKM
Experimental: sEH inhibition IC50 values for the compounds presented herein can be assayed by a recombinant affinity assay using purified sEHs, from human, mouse or rat, in a fluorescent-based assay.
For the recombinant affinity assay, purified sEHs (human, mouse and rat) were used in a fluorescent-based assay to determine IC50 values. […] These IC50 values were calculated from at least three separate runs, each in triplicate, to obtain the statistics herein, e.g., standard deviation.

human recombinant COX-2 = target: T2, human recombinant COX-2 (Homo sapiens, UniProt P35354); assay: Cyclooxygenase inhibition assay (COX Fluorescent Inhibitor Screening Assay Kit), COX-2; format: biochemical
T2 construct: purchased Cayman Chemical 700100
T2 sequence (P35354 18-604): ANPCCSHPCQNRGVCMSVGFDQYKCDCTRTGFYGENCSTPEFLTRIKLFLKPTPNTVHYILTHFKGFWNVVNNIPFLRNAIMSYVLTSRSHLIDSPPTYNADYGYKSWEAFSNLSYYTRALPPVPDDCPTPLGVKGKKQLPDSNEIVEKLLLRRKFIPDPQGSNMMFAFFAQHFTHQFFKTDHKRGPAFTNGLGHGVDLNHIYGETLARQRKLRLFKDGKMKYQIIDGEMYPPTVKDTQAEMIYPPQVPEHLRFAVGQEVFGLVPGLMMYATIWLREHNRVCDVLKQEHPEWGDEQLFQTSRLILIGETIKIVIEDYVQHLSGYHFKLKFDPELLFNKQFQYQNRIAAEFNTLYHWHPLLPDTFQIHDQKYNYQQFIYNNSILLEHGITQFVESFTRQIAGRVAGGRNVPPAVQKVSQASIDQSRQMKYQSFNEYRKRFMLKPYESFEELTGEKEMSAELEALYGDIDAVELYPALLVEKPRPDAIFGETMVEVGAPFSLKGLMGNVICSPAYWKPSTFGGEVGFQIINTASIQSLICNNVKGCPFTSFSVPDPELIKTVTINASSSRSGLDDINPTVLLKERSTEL
Experimental: (§1) Stock solutions of test compounds are dissolved in a minimum volume of DMSO. 10 μl of various concentrations of the test compound solutions, e.g., [I]final between 0.01 and 100 μM, are added to a series of supplied reaction buffer solutions (150 μl, 100 mM Tris-HCl, pH 8.0) with either COX-1 or COX-2 (10 μl) enzyme in the presence of Heme (10 μl) and a fluorometric substrate (10 μl). The reactions are initiated by quickly adding 10 μl of arachidonic acid solution and then incubating the system for two minutes at room temperature. […] The intensity of this fluorescence is proportional to the amount of resorufin, which is proportional to the amount of PGG2 present in the well during the incubation. Percent inhibition is calculated by comparison from the 100% initial activity sample value (no inhibitor).
as §1, with “compounds were” for “compounds are”, “μM, were” for “μM, are”, “reactions were” for “reactions are”, “then incubated” for “then incubating the system”, “inhibition was” for “inhibition is”

ovine COX-1 = target: T3, ovine COX-1 (Ovis aries, UniProt P05979); assay: Cyclooxygenase inhibition assay (COX Fluorescent Inhibitor Screening Assay Kit), COX-1; format: biochemical; conditions: for inhibition at 100 µM: read-out: COX-1 (% inhibition)
T3 construct: purchased Cayman Chemical 700100
T3 sequence (P05979 25-600): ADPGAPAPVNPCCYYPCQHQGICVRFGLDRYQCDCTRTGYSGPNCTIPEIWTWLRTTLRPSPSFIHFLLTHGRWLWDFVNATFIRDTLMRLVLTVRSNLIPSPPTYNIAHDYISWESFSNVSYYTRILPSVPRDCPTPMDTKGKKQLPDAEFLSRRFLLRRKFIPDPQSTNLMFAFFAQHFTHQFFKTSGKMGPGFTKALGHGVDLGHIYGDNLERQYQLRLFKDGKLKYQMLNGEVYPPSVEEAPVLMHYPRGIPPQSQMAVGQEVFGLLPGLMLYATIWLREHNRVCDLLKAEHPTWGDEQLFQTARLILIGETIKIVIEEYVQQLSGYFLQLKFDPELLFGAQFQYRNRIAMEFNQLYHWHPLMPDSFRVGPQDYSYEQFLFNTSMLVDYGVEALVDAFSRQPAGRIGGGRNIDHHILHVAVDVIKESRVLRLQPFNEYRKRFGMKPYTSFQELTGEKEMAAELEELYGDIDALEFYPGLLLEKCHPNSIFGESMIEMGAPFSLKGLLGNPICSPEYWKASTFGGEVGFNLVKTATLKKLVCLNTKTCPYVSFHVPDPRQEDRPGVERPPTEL
Experimental: as §1
as §1, with “compounds were” for “compounds are”, “μM, were” for “μM, are”, “reactions were” for “reactions are”, “then incubated” for “then incubating the system”, “inhibition was” for “inhibition is”

[1] = Pharmacokinetics in mice by oral cassette dosing; format: in vivo; conditions: oral cassette dosing at 5 mg/kg, blood
Experimental: All the animal experiments were performed according to protocols approved by the Animal Use and Care Committee of University of California, Davis. […] Each cassette was orally administered to 4 mice at a dose of 5 mg/kg in 120-150 μl of vehicle depending on animal weight. […] The instrument was equipped with a linear ion trap and a Turbo V ion source and was operated in negative ion MRM mode. […] This was maintained for 3 min, then the gradient was returned to 30% solvent B in 2 min. The flow rate was 0.4 mL/min. The injection volume was 10 μL and the samples were kept at 4° C. in the auto sampler.

5-LOX = target: T4, 5-LOX (Homo sapiens, UniProt P09917); assay: Potency against 5-LOX; format: biochemical; conditions: compared with celecoxib
T4 sequence (P09917 1-674): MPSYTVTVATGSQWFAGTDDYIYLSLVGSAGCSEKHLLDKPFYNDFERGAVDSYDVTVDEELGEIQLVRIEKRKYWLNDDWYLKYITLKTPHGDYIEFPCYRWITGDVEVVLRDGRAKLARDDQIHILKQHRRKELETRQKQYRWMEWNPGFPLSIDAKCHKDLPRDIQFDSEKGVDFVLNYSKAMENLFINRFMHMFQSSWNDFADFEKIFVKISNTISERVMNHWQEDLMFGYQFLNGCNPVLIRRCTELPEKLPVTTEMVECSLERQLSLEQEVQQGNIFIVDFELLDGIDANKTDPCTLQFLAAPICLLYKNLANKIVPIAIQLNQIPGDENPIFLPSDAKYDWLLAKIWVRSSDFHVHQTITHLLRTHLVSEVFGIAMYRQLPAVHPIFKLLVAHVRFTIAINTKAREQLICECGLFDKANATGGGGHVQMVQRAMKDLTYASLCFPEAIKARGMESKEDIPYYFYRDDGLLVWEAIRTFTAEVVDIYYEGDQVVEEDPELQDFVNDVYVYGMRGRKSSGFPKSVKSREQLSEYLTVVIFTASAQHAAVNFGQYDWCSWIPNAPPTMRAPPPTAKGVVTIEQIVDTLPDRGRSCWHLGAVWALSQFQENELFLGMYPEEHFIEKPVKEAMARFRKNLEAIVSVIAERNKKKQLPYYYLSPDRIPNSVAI

HepG2 cells = assay: HepG2 cell viability analysis (MTT); format: cell-based; conditions: Homo sapiens, HepG2; MTT after 24 hours of incubation
Experimental: Cells were plated at 10,000 cell per well in 96-well plates and allowed to attach overnight under the growth conditions described above. […] These compounds were dissolved in 100% DMSO and diluted with EMEM to the desired concentration of 0.1 μM, 1.0 μM, 10 μM, 25 μM, and 50 μM, with a final DMSO concentration of 0.1% for all cell-based in vitro studies. All studies included DMSO as a solvent control. Cell viability was determined using the MTT Cell Viability Assay Kit from ATCC according to manufacturer's instructions. The 96-well plates were measure at 570 nm using SpectroMax 190 plate reader (Molecular Devices, Sunnyvale, Calif.). […] Each concentration was performed in triplicate per 96-well plate and EC50 data are presented as the mean±standard deviation from at least 3 separate experiments performed on separate days.

[2] = Pharmacokinetics in rats by oral administration
LPS induced allodynia = assay: Von Frey mechanical nociceptive assay, LPS induced model of inflammatory pain; format: in vivo; conditions: male SD rats, 10 mg/kg s.c. 60 minutes before intraplantar LPS, tested until 6 hours post LPS
Experimental: In vivo anti-allodynic effects of the COX-2/sEH dual inhibitors provided herein was assayed. An LPS induced model of inflammatory pain was used to compare the pain reducing activity of the COX-2/sEH dual inhibitors to combination and individual therapies.
Rats weighing approximately 250-300 grams are brought to the testing apparatus and allowed to acclimate for 30 minutes. After 30 minutes the rats are tested with a von Frey aesthesiometer for their non-treated baseline withdrawal latency to mechanical stimulation. The von Frey apparatus is a raised metal mesh platform that has clear acrylic chambers to enclose rats but allow them to move freely. A rigid tip von Frey probe is used to probe the plantar surface of the rat hind paw though the mesh floor to elicit a withdrawal response. The measures recorded are grams of force applied to the hind paw required to elicit a withdrawal. The pretreatment baseline score is considered the pain-free baseline (BL) and is assigned 100% for further response calculations. […] The measures are then calculated as a percent of the pretreatment baseline score.

[3] = human recombinant COX-2, triplicate average
[4] = rats, oral administration at 1 mg/kg (n = 4), blood

In the case of `NS(=O)(=O)c1ccc(-n2nc(CCCNC(=O)Nc3cccc(C(F)(F)F)c3)cc2-c2ccccc2)cc1` [Compound 21b, 4-(5-Phenyl-3-{3-[3-(3-trifluoromethyl-phenyl)-ureido]-propyl}-pyrazol-1-yl)-benzenesulfonamide], the “Improvement of sEH inhibition” value (human sEH) is reported as 20 fold, the IC50 (human recombinant COX-2; [3]) is reported as 0.71 µM and the IC50 (human recombinant COX-2; text of b131, unit inferred) is reported as 0.71 µM. It also gave an IC50 (ovine COX-1) of over 100 µM, an inhibition at 100 µM (ovine COX-1) of 27.2% and an AUC [1] of 0.035 µM·h. For the same compound, the Cmax [1] was 19 nM, the Tmax [1] was 0.5 h and the t1/2 [1] was 1.0 h. The “Potency against 5-LOX, in words” value (5-LOX) was “comparable with celecoxib”.

For `NS(=O)(=O)c1ccc(-n2nc(CCCNC(=O)Nc3ccc(OC(F)(F)F)cc3)cc2-c2ccccc2)cc1` [Compound 21j, 4-(5-Phenyl-3-{3-[3-(4-trifluoromethoxy-phenyl)-ureido]-propyl}-pyrazol-1-yl)-benzenesulfonamide], the IC50 (human recombinant COX-2; [3]) was 0.92 µM, the IC50 (ovine COX-1) was over 100 µM and the inhibition at 100 µM (ovine COX-1) was 13.8%. The AUC [1] was 1.335 µM·h, the Cmax [1] was 290 nM and the Tmax [1] was 0.8 h. For the same compound, the t1/2 [1] was 2.4 h, the EC50 (HepG2 cells) was 10 ± 2 µM and the “Potency against 5-LOX, in words” value (5-LOX) was “comparable with celecoxib”. The half-life ([2]; male, Sprague-Dawley, rat, whole blood, po, 1 mg/kg) was 11.6 ± 5.6 h, the AUC [2, 4] was 1.23 ± 0.521 µM·h and the Cmax [2, 4] was 180 ± 71 nM. The Tmax [2, 4] was 1.0 ± 0.7 h.

In the case of `O=C(NC1CCC(Oc2ccc(C(=O)O)cc2)CC1)NC12CC3CC(CC(C3)C1)C2` (stereo not shown) [t-AUCB, reference compound], the “COX-1 (% inhibition)” value (ovine COX-1; ovine COX-1, % inhibition at 100 μM concentration) is reported as 25.2% and the “Anti-allodynic effect, von Frey paw withdrawal, in words” value (LPS induced allodynia) is reported as “slight antihyperalgesic effect; also recorded: limited effect”.
